Results as given in patent publication US12129237B2, “Substituted diaminocarboxamide and diaminocarbonitrile pyrimidines, compositions thereof, and methods of treatment therewith” (SIGNAL PHARMACEUTICALS, LLC, priority 2011, dated 2024).

biological target: T1, JNK1 (Homo sapiens, UniProt P45983); test: JNK1 biochemical assays (one or more of: time resolved fluorescence, Z'-LYTE Cascade, radioactive); conditions: Table 2; JNK1 IC50 activity level; read-out: Act. Level
T1 construct: purchased Carna Biosciences
T1 sequence (P45983 whole entry): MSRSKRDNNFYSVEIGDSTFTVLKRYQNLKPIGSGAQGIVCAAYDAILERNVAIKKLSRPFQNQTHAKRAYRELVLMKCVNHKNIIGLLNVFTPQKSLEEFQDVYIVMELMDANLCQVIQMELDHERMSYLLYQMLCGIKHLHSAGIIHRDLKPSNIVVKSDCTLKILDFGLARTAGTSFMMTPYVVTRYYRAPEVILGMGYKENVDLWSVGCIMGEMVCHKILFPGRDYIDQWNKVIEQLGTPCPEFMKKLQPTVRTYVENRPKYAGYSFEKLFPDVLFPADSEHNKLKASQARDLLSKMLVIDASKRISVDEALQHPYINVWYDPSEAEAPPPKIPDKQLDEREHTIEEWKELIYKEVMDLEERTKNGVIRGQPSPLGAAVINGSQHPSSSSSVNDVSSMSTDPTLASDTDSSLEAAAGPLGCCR

Row | IC50 [nM] | SMILES
1 | 1000 to 10000 | Cc1ccnc(Nc2ncc(C(N)=O)c(Nc3ccccc3)n2)n1 [Example B-21, 2-(4-methylpyrimidin-2-ylamino)-4-(phenylamino)pyrimidine-5-carboxamide]
2 | 200 to 800 | COc1ccc(CCNc2ncc(C(N)=O)c(Nc3ccccc3)n2)cc1OC [Example B-66, 2-(3,4-dimethoxyphenethylamino)-4-(phenylamino)pyrimidine-5-carboxamide]
3 | < 200 | COc1ccccc1Nc1ncc(C(N)=O)c(Nc2ccccc2)n1 [Example B-15, 2-(2-methoxyphenylamino)-4-(phenylamino)pyrimidine-5-carboxamide]
4 | 800 to 1000 | NC(=O)c1cnc(NCc2ccccc2)nc1Nc1ccccc1 [Example B-73, 2-(benzylamino)-4-(phenylamino)pyrimidine-5-carboxamide]

same assay, conditions: Table 3; JNK1 IC50 activity level; read-out: Act. Level

Row | IC50 [nM] | SMILES
5 | 200 to 800 | CCO[C@H]1CC[C@H](Nc2ncc(C#N)c(NC3CCCCC3)n2)CC1 [Example C-20, 4-(cyclohexylamino)-2-((1r,4r)-4-ethoxycyclohexylamino) pyrimidine-5-carbonitrile]
6 | < 200 | C[C@@H]1CC[C@@H](Nc2nc(N[C@H]3CC[C@H](OCC(F)(F)F)CC3)ncc2C#N)C[C@H]1O [Example C-49]
7 | < 200 | C[C@]1(O)CCC[C@@H](Nc2nc(N[C@H]3CC[C@H](OCC(F)(F)F)CC3)ncc2C#N)C1 [Example C-40]
8 | < 200 | CO[C@H]1CC[C@H](Nc2ncc(C#N)c(N[C@@H]3CCC[C@H]3O)n2)CC1 [Example C-18, 4-((1R,2R)-2-hydroxycyclopentylamino)-2-((1r,4R)-4-methoxycyclohexylamino) pyrimidine-5-carbonitrile]
9 | 200 to 800 | CC(C)(C)Nc1ncc(C#N)c(NC(C)(C)C)n1 [Example C-63, 2,4-bis(tert-butylamino)pyrimidine-5-carbonitrile]
10 | < 200 | CCO[C@H]1CC[C@H](Nc2ncc(C#N)c(N[C@@H]3CCC[C@](C)(O)C3)n2)CC1 [Example C-28, 2-((1r,4R)-4-ethoxycyclohexylamino)-4-((1R,3S)-3-hydroxy-3-methylcyclohexylamino) pyrimidine-5-carbonitrile]

same assay, conditions: one or more of the JNK1 biochemical assays; read-out: Act. Level (JNK1 IC50 activity level)

Row | IC50 [nM] | SMILES
11 | 200 to 800 | CC(C)(C)Nc1ncc(C(N)=O)c(N[C@@H]2CCCOC2)n1 [Example 236, (R)-2-(tert-butylamino)-4-(tetrahydro-2H-pyran-3-ylamino)pyrimidine-5-carboxamide]
12 | < 200 | CO[C@H]1CC[C@H](Nc2ncc(C(N)=O)c(N[C@@H](C)C(C)(C)C)n2)CC1 [Example 278, 4-((S)-3,3-dimethylbutan-2-ylamino)-2-((1r,4S)-4-methoxycyclohexylamino)pyrimidine-5-carboxamide]
13 | < 200 | CCO[C@H]1CC[C@H](Nc2ncc(C(N)=O)c(NC3(CC)CCC3)n2)CC1 [Example 360, 2-((1r,4r)-4-ethoxycyclohexylamino)-4-(1-ethylcyclobutylamino)pyrimidine-5-carboxamide]
14 | < 200 | CCC1(Nc2nc(N[C@H]3CC[C@H](O)CC3)ncc2C(N)=O)CCC1 [Example 362, 4-(1-ethylcyclobutylamino)-2-((1r,4r)-4-hydroxycyclohexylamino)pyrimidine-5-carboxamide]
15 | < 200 | NC(=O)c1cnc(N[C@H]2CC[C@H](OC(F)F)CC2)nc1NC12CC(C1)C2 [Example 420, 4-(bicyclo[1.1.1]pentan-1-ylamino)-2-((1r,4r)-4-(difluoromethoxy)cyclohexylamino)pyrimidine-5-carboxamide]
16 | < 200 | C[C@@H]1CC[C@@H](Nc2nc(NC34CC(C)(C3)C4)ncc2C(N)=O)C[C@H]1O [Example 396, 4-((1R,3R,4R)-3-hydroxy-4-methylcyclohexylamino)-2-(3-methylbicyclo[1.1.1]pentan-1-ylamino)pyrimidine-5-carboxamide]
17 | < 200 | CC(C)(C)Nc1nc(NC23CCC(O)(CC2)CC3)ncc1C(N)=O [Example 237, 4-(tert-butylamino)-2-(4-hydroxybicyclo[2.2.2]octan-1-ylamino)pyrimidine-5-carboxamide]
18 | < 200 | NC(=O)c1cnc(NC23CCC(F)(CC2)CC3)nc1N[C@@H]1CCCC[C@H](O)C1 [Example 335, 2-(4-fluorobicyclo[2.2.2]octan-1-ylamino)-4-((1R,3S)-3-hydroxycycloheptylamino)pyrimidine-5-carboxamide]
19 | < 200 | NC(=O)c1cnc(NC2CCOCC2)nc1N[C@@H]1CCC[C@@H]1CO [Example 252, 4-((1R,2S)-2-(hydroxymethyl)cyclopentylamino)-2-(tetrahydro-2H-pyran-4-ylamino)pyrimidine-5-carboxamide]
20 | < 200 | CC1CCC1Nc1nc(N[C@H]2CC[C@H](O)CC2)ncc1C(N)=O (stereo partly drawn) [Example 244, 2-((1r,4r)-4-hydroxycyclohexylamino)-4-(2-methylcyclobutylamino)pyrimidine-5-carboxamide]
21 | < 200 | CC1(Nc2nc(NC34CCC(O)(CC3)C4)ncc2C(N)=O)CCC1 [Example 451, 2-(4-hydroxybicyclo[2.2.1]heptan-1-ylamino)-4-(1-methylcyclobutylamino)pyrimidine-5-carboxamide]
22 | < 200 | CCC1(Nc2nc(N[C@H]3CC[C@H](OC)CC3)ncc2C(N)=O)CCC1 [Example 361, 4-(1-ethylcyclobutylamino)-2-((1r,4r)-4-methoxycyclohexylamino)pyrimidine-5-carboxamide]
23 | < 200 | CCO[C@H]1CC[C@H](Nc2ncc(C(N)=O)c(NC(C)C)n2)CC1 [Example 224, 2-((1r,4r)-4-ethoxycyclohexylamino)-4-(isopropylamino)pyrimidine-5-carboxamide]
24 | < 200 | CCO[C@H]1CC[C@H](Nc2ncc(C(N)=O)c(N[C@@H]3CCC[C@H]3CO)n2)CC1 [Example 259, 2-((1r,4R)-4-ethoxycyclohexylamino)-4-((1R,2R)-2-(hydroxymethyl)cyclopentylamino)pyrimidine-5-carboxamide]
25 | < 200 | CC(C)(C)Nc1nc(N[C@H]2CCCOC2)ncc1C(N)=O [Example 300, (S)-4-(tert-butylamino)-2-(tetrahydro-2H-pyran-3-ylamino)pyrimidine-5-carboxamide]
26 | < 200 | NC(=O)c1cnc(N[C@H]2CC[C@H](OC3CC3)CC2)nc1NC12CC(C1)C2 [Example 368, 4-(bicyclo[1.1.1]pentan-1-ylamino)-2-((1r,4r)-4-cyclopropoxycyclohexylamino)pyrimidine-5-carboxamide]
27 | < 200 | CC1(Nc2nc(N[C@@H]3CCC[C@H](O)C3)ncc2C(N)=O)CCC1 [Example 404, 2-((1R,3S)-3-hydroxycyclohexylamino)-4-(1-methylcyclobutylamino)pyrimidine-5-carboxamide]
28 | < 200 | CC1(Nc2nc(N[C@H]3CC[C@H](O)CC3)ncc2C(N)=O)CCCC1 [Example 322, 2-((1r,4r)-4-hydroxycyclohexylamino)-4-(1-methylcyclopentylamino)pyrimidine-5-carboxamide]
29 | < 200 | NC(=O)c1cnc(NC2CCC2)nc1N[C@@H]1CCC[C@H](O)C1 [Example 341, 2-(cyclobutylamino)-4-((1R,3S)-3-hydroxycyclohexylamino)pyrimidine-5-carboxamide]
30 | < 200 | C[C@H](Nc1nc(N[C@H]2CC[C@H](O)CC2)ncc1C(N)=O)C(C)(C)C [Example 280, 4-((S)-3,3-dimethylbutan-2-ylamino)-2-((1r,4S)-4-hydroxycyclohexylamino)pyrimidine-5-carboxamide]

same assay, conditions: tested in one or more of the JNK1 biochemical assays; read-out: Act. Level (JNK1 biochemical assay IC50 activity level)

Row | IC50 [nM] | SMILES
31 | < 200 | NC(=O)c1cnc(N[C@H]2CC[C@H](O)CC2)nc1N[C@@H]1CCCC[C@H](O)C1 [Example A-171, 4-((1R,3S)-3-hydroxycycloheptylamino)-2-((1r,4R)-4-hydroxycyclohexylamino)pyrimidine-5-carboxamide]
32 | < 200 | NC(=O)c1cnc(N[C@H]2CC[C@H](OC(F)F)CC2)nc1N[C@@H]1CCCC[C@H](O)C1 [Example A-165, 2-((1r,4R)-4-(difluoromethoxy)cyclohexylamino)-4-((1R,3S)-3-hydroxycycloheptylamino)pyrimidine-5-carboxamide]
33 | < 200 | CC(C)CC(=O)N1CCC(Nc2ncc(C(N)=O)c(NC3CCC3)n2)CC1 [Example A-107, 4-(cyclobutylamino)-2-(1-(3-methylbutanoyl)piperidin-4-ylamino)pyrimidine-5-carboxamide]
34 | < 200 | CO[C@H]1CC[C@H](Nc2ncc(C(N)=O)c(N[C@@H]3CCCC[C@](C)(O)C3)n2)CC1 [Example A-183, 4-((1R,3S)-3-hydroxy-3-methylcycloheptylamino)-2-((1r,4R)-4-methoxycyclohexylamino)pyrimidine-5-carboxamide]
35 | < 200 | CCO[C@H]1CC[C@H](Nc2ncc(C(N)=O)c(N[C@@H]3CCC[C@](C)(O)C3)n2)CC1 [Example A-157, 2-((1r,4R)-4-ethoxycyclohexylamino)-4-((1R,3S)-3-hydroxy-3-methylcyclohexylamino)pyrimidine-5-carboxamide]
36 | < 200 | NC(=O)c1cnc(NC2CCCCC2)nc1N[C@H]1CC[C@@H](C(N)=O)CC1 [Example A-146, 4-((1s,4s)-4-carbamoylcyclohexylamino)-2-(cyclohexylamino)pyrimidine-5-carboxamide]
37 | < 200 | CCO[C@H]1CC[C@H](Nc2ncc(C(N)=O)c(N[C@@H]3CCOC3)n2)CC1 [Example A-167, 2-((1r,4R)-4-ethoxycyclohexylamino)-4-((R)-tetrahydrofuran-3-ylamino)pyrimidine-5-carboxamide]
38 | < 200 | CO[C@H]1CC[C@H](Nc2ncc(C(N)=O)c(N[C@H]3CC[C@@H](O)C3)n2)CC1 [Example A-80, 4-((1S,3R)-3-hydroxycyclopentylamino)-2-((1r,4S)-4-methoxycyclohexylamino)pyrimidine-5-carboxamide]
39 | < 200 | CC1(Nc2nc(N[C@H]3CC[C@H](O)CC3)ncc2C(N)=O)CCOCC1 [Example A-79, 2-((1r,4r)-4-hydroxycyclohexylamino)-4-(4-methyltetrahydro-2H-pyran-4-ylamino)pyrimidine-5-carboxamide]
